Ten compounds from PubChem BioAssay (NCI) can be followed below.

Structures are written as SMILES. Several values for one entry are separate records, joined by “and”; a condition that tells them apart may be missing. Identical values can stand only once.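 The compound was tested at five concentrations on cells cultured in 96-well plates, with a 48-hour exposure period. GI50 is the concentration that inhibits growth by half. Definition used: TGI = concentration required for complete inhibition of growth.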

Among the test systems are A549 NSCLC; KM20L2 colon; LOX IMVI melanoma; KM12 colon; SF-539 CNS; DMS 273 small cell lung; NCI-H23 lung; OVCAR-4 ovarian; TK-10 renal; MDA-MB-435.
Assay in all cases: growth of human tumour cells (NCI), 48 h

For `CC(=O)OCC1OC(n2c(=S)n(-c3ccccc3)c(=O)c3cc(Br)cc(Br)c32)C(OC(C)=O)C(OC(C)=O)C1OC(C)=O` (configuration not stated), the TGI with A549 NSCLC, in the assay on KM20L2 colon, with LOX IMVI melanoma, with KM12 colon, in the assay with SF-539 CNS and in the assay with DMS 273 small cell lung was more than 100 µM in each case. The TGI in the assay with NCI-H23 lung is 92.1 µM and > 100 µM. The GI50 in the assay with SF-539 CNS was 43.9 µM and > 100 µM; with NCI-H23 lung it was 19.1 µM and 72.3 µM.
As to `O=C(/C=C(\[O-])c1ccccc1)CCCCCCC(=O)/C=C(\[O-])c1ccccc1.O=C(/C=C(\[O-])c1ccccc1)CCCCCCC(=O)/C=C(\[O-])c1ccccc1.O=C(/C=C(\[O-])c1ccccc1)CCCCCCC(=O)/C=C(\[O-])c1ccccc1.[Nd+3].[Nd+3]`, the GI50 in the assay on OVCAR-4 ovarian, in the assay on A549 NSCLC, in the assay with KM20L2 colon, in the assay with LOX IMVI melanoma, in the assay on KM12 colon and with TK-10 renal was more than 50 µM each time. Also, the GI50 with SF-539 CNS and with NCI-H23 lung was more than 50 µM throughout. The TGI in the assay with OVCAR-4 ovarian, in the assay with A549 NSCLC, in the assay on KM20L2 colon, in the assay on LOX IMVI melanoma, with KM12 colon and with TK-10 renal was more than 50 µM in each case. The TGI in the assay on SF-539 CNS and in the assay on NCI-H23 lung was more than 50 µM each time.
Turning to `CN(C)c1ccc(O[Si](Oc2ccc(N(C)C)cc2)(Oc2ccc(N(C)C)cc2)Oc2ccc(N(C)C)cc2)cc1`, the TGI in the assay with OVCAR-4 ovarian, in the assay on A549 NSCLC, in the assay on KM20L2 colon, with LOX IMVI melanoma, in the assay with KM12 colon and with TK-10 renal was more than 100 µM in each case. Moreover, the TGI in the assay on SF-539 CNS and in the assay with NCI-H23 lung was more than 100 µM throughout.
`COC(=O)c1sc(=NC(=S)N2CCCCC2)sc1C(=O)OC`: the TGI in the assay with OVCAR-4 ovarian, in the assay on KM20L2 colon, with KM12 colon, with TK-10 renal, in the assay on SF-539 CNS and with DMS 273 small cell lung was more than 100 µM in each case.
With `NNC(=O)N/N=C1\CN(c2ccc(Cl)cc2Cl)C(=O)C(=O)C1c1nc2ccccc2o1` (configuration not stated), the TGI with OVCAR-4 ovarian, in the assay on A549 NSCLC, with KM20L2 colon, in the assay with KM12 colon, with SF-539 CNS and in the assay on DMS 273 small cell lung was more than 100 µM each time. In addition, in the assay with NCI-H23 lung, the TGI is more than 100 µM.
On to `OCC(O)C(O)C(O)C(O)c1nn[nH]n1` (configuration not stated), for which the TGI with OVCAR-4 ovarian, in the assay on A549 NSCLC, in the assay on LOX IMVI melanoma, in the assay on KM12 colon, with SF-539 CNS and in the assay on DMS 273 small cell lung was more than 100 µM in each case. Besides, the TGI with NCI-H23 lung is more than 100 µM.
In the case of `Nc1ccc(C(=O)/C=C/c2ccccc2O)cc1`, the TGI in the assay with OVCAR-4 ovarian, with A549 NSCLC, with KM20L2 colon, in the assay with LOX IMVI melanoma, with KM12 colon and in the assay on TK-10 renal was more than 100 µM each time. The TGI with SF-539 CNS and with NCI-H23 lung was more than 100 µM in each case.
As to `CN(C)c1ccc(N=C2C=CC(=C(C#N)C#N)c3ccccc32)cc1`, the TGI with OVCAR-4 ovarian stood at 6.13 µM; in the assay on A549 NSCLC, 13.7 µM; with MDA-MB-435 it was 0.191 µM; in the assay on LOX IMVI melanoma, 3.49 µM; in the assay on KM12 colon, 12 µM; with TK-10 renal, 16.4 µM. Further, the TGI with SF-539 CNS was 0.576 µM; in the assay with DMS 273 small cell lung, 12.6 µM; with NCI-H23 lung, 4.19 µM.
With `COc1ccc(/C(C)=C(\c2ccc(Cl)cc2)c2ccc(OCCN3CCCCCC3)cc2)cc1F`, the GI50 with OVCAR-4 ovarian is 2.63 µM; in the assay on A549 NSCLC, 5.27 µM; in the assay on MDA-MB-435 it was 2.78 µM; in the assay on LOX IMVI melanoma it was 2.51 µM; in the assay with KM12 colon it was 1.7 µM; in the assay on TK-10 renal, 4.28 µM. The GI50 is 2.18 µM in the assay on SF-539 CNS and 3.07 µM in the assay with NCI-H23 lung. Besides, the TGI in the assay on OVCAR-4 ovarian is 8.09 µM; with A549 NSCLC, more than 16.7 µM; with MDA-MB-435, 5.77 µM; in the assay with LOX IMVI melanoma, 4.82 µM; with KM12 colon, 7.04 µM; with TK-10 renal, 14 µM. Moreover, the TGI in the assay on SF-539 CNS came out at 4.39 µM; with NCI-H23 lung, 10.4 µM.
Take `CC(=O)[O-].[Mn+3].[O-]c1ccc(Cl)cc1C=NCCN=Cc1cc(Cl)ccc1[O-]`: the GI50 with OVCAR-4 ovarian is more than 100 µM; in the assay on A549 NSCLC it was more than 100 µM; in the assay with LOX IMVI melanoma it was 38.6 µM; in the assay on KM12 colon, more than 100 µM; in the assay with TK-10 renal, more than 100 µM; in the assay with SF-539 CNS, 36 µM. Further, the GI50 with DMS 273 small cell lung and with NCI-H23 lung was more than 100 µM throughout. Besides, the TGI in the assay on OVCAR-4 ovarian was more than 100 µM; in the assay on A549 NSCLC, more than 100 µM; in the assay on LOX IMVI melanoma, more than 100 µM; with KM12 colon, more than 100 µM; in the assay on TK-10 renal it was more than 100 µM; with SF-539 CNS it was 74.3 µM. Moreover, the TGI in the assay on DMS 273 small cell lung and with NCI-H23 lung was more than 100 µM in each case.
